Data reported in US20220267271A1, “WNT ACTIVATORS AND METHODS OF USE” (MAYO FOUNDATION FOR MEDICAL EDUCATION AND RESEARCH, priority 2019, published 2022).

Legend:
[1] = test system: LRP6; assay: Endogenous LRP6 expression in N2a cells by Western blotting; type: cell-based; conditions: 0.8 and 1.6 μM, 24 h
Procedure: (A) HT1080 cells stably transduced with human LRP6 with HA tag were treated with niciosamide (1 μM) and other compounds as noted (1 μM) for 24 hr. The levels of HA-LRP6 were examined by Western blots with anti-HA antibody. All samples were also probed with anti-actin antibody to verify equal loading. This experiment is a representative of two such experiments performed with similar data. (B) N2a cells were treated with 1015 and 1011 at the indicated concentrations for 24 h. The expression levels of LRP6, β-catenin and actin were examined by Western blotting. This experiment is a representative of three such experiments performed with similar data. (C) HEK293 cells were transfected with LRP6 siRNAs, and after 8 h incubation were further transfected with Super8XTOPFlash construct and β galactosidase-expressing vector. […] The luciferase activity was then measured and normalized to β-galactosidase activity. […]
Western blotting: Cells in 6-well plates were lysed in 0.5 ml of lysis buffer (phosphate-buffered saline containing 1% Triton X-100, 1× Proteinase inhibitor cocktail Complete, and 1 mM PMSF) at 4° C. for 15 min. Equal quantities of protein were subjected to SDS-PAGE under reducing conditions. […] The immunoreactive proteins were then detected using the ECL system or the Odyssey infrared imaging system (LI-COR). […]

[2] = test system: S. typhimurium TA100; assay: Ames test, bacterial reverse mutation assay, TA100; parameters: species or system Salmonella typhimuium; conditions: 1011 and 1015 at 400 μM, mean ± SD, n = 3
Procedure: Ames test: According to the OECD Guidelines For Testing Of Chemicals, experiments with the tested agents, positive and negative controls, were conducted in triplicates on 6 tester strains, S. typhimurium: TA98, TA100, TA1535, TA1537 and E. coli: wp2[pKM101]+wp2 uvrA mixed 1:2. Dimethyl sulfoxide (DMSO) was used as the vehicle control for all tester strains in mutagenicity assay with and without metabolic activation. Compounds with known mutagenic activity were used as the positive controls in mutagenicity assay without metabolic activation: 2-nitrofluorene (0.1 μg/plate) for TA98, 4-nitroquinoline N-oxide (0.1 μg/plate) for TA100, sodium azide (0.2 μg/plate) for TA1535, 9-aminoacridine (7.5 μg/plate) for TA1537, and 4-nitroquinoline N-oxide (0.1 μg/plate) for E. coli. 2-Aminoantracene in final concentration 0.4 μg/ml was used as the positive control (the solution of 2-aminoantracene in DMSO was prepared immediately before experiment) in test with metabolic activation. For each experiment tester strain cultures were grown overnight in Oxoid nutrient broth #2 at 37° C. with shaking at 235 rpm to a density of 1-2×10^9 colony forming units/ml (OD600˜1.5). The S9 mix, which is consist of 9000 g supernatant fraction of rat liver homogenate (S9 fraction), was prepared immediately prior to its use in experimental procedure.
The tester strain (10 μl of overnight culture) was mixed with the test agent (10 μl of the DMSO stock) and GM liquid medium (30 μl) or S9 mix (30 μl). Then, 200 μl of molten top agar supplemented with histidine/biotin (final concentration 0.05 mM) for S. typhimurium and tryptophan (final concentration 0.025 mM) for E. coli were added to the tube (top agar was kept at 44° C. to prevent hardening). The mixed suspension was poured onto the surface of a GM agar plate (2.0 ml of GM agar per plate). After the top agar solidified, the plates were inverted and incubated at 37° C. for 48 hours. The results were expressed as number of revertant colonies per plate. The final concentrations of the test compounds in the mutagenicity assay with all tester strains in both the presence and absence of S9 mix were 400 μM. All concentrations were tested in triplicates.

[3] = Pharmacokinetic study in Balb/c mice following intravenous administration; type: in vivo; conditions: male Balb/c mice, IV 2 mg/kg
Procedure: (A) Plasma and brain concentration—time curves of 1015 in male Balb/c mice following intravenous (2 mg/kg) administration (n=4 at each time point). (B) in vivo pharmacokinetic parameters of 1015. B/P: brain/plasma concentration ratio (30 min after IV injection with 2 mg/kg) calculated using 1 g/mL brain density.
Pharmacokinetic study of compound 1015 in Balb/c mice following intravenous administration: Male Balb/c mice (11-12 weeks old, body weight 21.9 to 31.3 g and average body weight across all groups 25.6 g, SD=2.19 g) were used in this study. The animals were randomly assigned to the treatment groups before the pharmacokinetic study; all animals were fasted for 4 h before intravenous injection of 1015 at 2 mg/kg dissolved in Kolliphor HS-physiological saline (20%:80%). Eight time points (5, 15, 30, 60, 120, 240, 480 and 1440 min) were set for this pharmacokinetic study. Each of the time point treatment group included 4 animals. There was also a control group of 2 animals. Mice were injected IV with 2,2,2-tribromoethanol at the dose of 150 mg/kg prior to drawing the blood. Blood collection was performed from the orbital sinus in microtainers containing K2EDTA. Animals were sacrificed by cervical dislocation after blood samples collection. Brain and plasma samples were immediately processed, flash-frozen and stored at −70° C. until subsequent analysis.
Plasma samples (50 μl) were mixed with 200 μl of IS solution. After mixing by pipetting and centrifuging for 4 min at 6000 rpm, 2 μl of each supernatant was injected into LC-MS/MS system. Solution of compound IS-22665-01 (200 ng/ml in acetonitrile-methanol mixture, 1:1, v/v) was used as internal standard (IS) for quantification of 1015 in plasma samples. Brain samples (100 mg±1 mg) were dispersed in 500 μl of IS200(80) using zirconium oxide beads (150 mg±5 mg) in The Bullet Blender® homogenizer for 60 seconds at speed 8. […] Solution of compound IS-22665-01 (200 ng/ml in water-acetonitrile-methanol mixture, 2:4:4, v/v/v) was used as internal standard (IS200(80)) for quantification of 1015 in brain samples. […]

[4] = with metabolic activation (S9 mix)

SMILES | endogenous LRP6 expression [1] | Number of revertant colonies per plate, TA100 [2, 4] | Number of revertant colonies per plate, TA100 ([2]; without metabolic activation) | concentration in brain versus plasma [3] | half-life (t1/2), brain versus plasma [3] | Kp at 30 min ([3]; mouse, brain/plasma, 30 min after injection, read-out: brain concentration/plasma concentration ratio (B/P))
CC1CCCC(C)N1CCNC(=O)c1ccc(C(=O)Nc2ccccc2N)nc1 (stereo not drawn) [Compound 1011] | significantly enhanced | 4.7 ± 2.1 revertant colonies per plate | 4.3 ± 3.5 revertant colonies per plate |  |  | 
Nc1ccccc1NC(=O)c1ccc(C(=O)NCC2CCN2C2CCCC2)cn1 (stereo not drawn) [Compound 1015] | significantly enhanced | 2.0 ± 1.0 revertant colonies per plate | 1.33 ± 0.6 revertant colonies per plate | much higher concentration in brain than in plasma | much longer in brain than in plasma | 5.6
